The results in this text go back to US20100254902A1, “STABILIZATION OF RADIOPHARMACEUTICALS” (priority 2008, published 2010).

This series is described as follows: Radiochemical purity (RCP) of [^18F]FDG composition by TLC, stability testing.

Method: Radiochemical purity of [^18F]FDG composition samples was determined at end of synthesis (EOS) and at Expiry i.e. after 10 hours storage at 22° C.±3° C. to determine stability of the composition.
To a series of vials was added an amount of stabilizer dissolved in Buffer.
At EOS (within 2 hours), a 100-fold dilution of the test solution was prepared by addition of a 10 μl sample to a 990 μl volume of water for injection. After mixing, a 2 μl sample was applied to a TLC strip.
At 10 hours after synthesis, a 10-fold dilution was made by addition of a 20 μl sample to a 180 μl volume of water for injection. After mixing, a 3 μl sample was applied to a TLC strip.
Within 1 to 3 hours after manufacture, radiochemical purity (RCP) was determined by TLC. The vials were stored at 22° C.±3° C. and at 10 hours after synthesis, RCP was again determined by TLC.

Turning to `CC(C)=O` [Acetone, reference compound], for the setting “Example 1, additives 2.5-20 mg/ml acetone or ethanol, 3-6 mg/ml gentisic acid”, the “stabilising effect on [^18F]FDG composition (conclusion)” value is reported as “slight stabilising effect”.
For `O=C(O)c1cc(O)ccc1O` [gentisic acid, 2,5-dihydroxybenzoic acid], the “RCP at EOS+10 h, difference GA versus ethanol” value (Example 5, vial 6 versus vial 5) turned out to be 1%. The “stabiliser quality compared with ethanol (conclusion)” value (Example 5, vial 6 versus vial 5, approximately 2 mg/ml stabilizer) is given as “better stabiliser than ethanol”. For the same compound, the “effect of increasing amounts of gentisic acid on stabilisation of [^18F]FDG” value (Examples 2-4, batches <50 GBq at EOS, ranges 0.1-0.5, 0.5-1 and 1-2 mg/ml) is on record as “the higher amount was found to be more effective”.
